Measurements: PubChem BioAssay AID180 (DTP/NCI, 2004)
Values joined by “and” are separate entries in the source; they are usually repeats but may differ in a detail not shown here. Equal values may be shown once.

Tested on: BDF1 mice, Adenocarcinoma 755 s.c., tumor weight T/C
Experiment: NCI In Vivo Anticancer Drug Screen. Data for tumor model Adenocarcinoma 755 (subcutaneous) in B6D2F1 (BDF1) mice
Conditions: endpoint: mean tumor weight, higher = larger tumour
In short: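 Compound activity was tested in mice carrying transplanted tumors. Survival or tumor size was measured, and each value is the treated-group measurement divided by that of the vehicle-treated control group (T/C).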

[1] = dose: 25.0 mg/kg/injection, schedule: Q01DX011 (ip), vehicle: methylcellulose (MC)
[2] = dose: 225.0 mg/kg/injection, schedule: Q01DX011 (ip), vehicle: methylcellulose (MC)
[3] = dose: 75.0 mg/kg/injection, schedule: Q01DX011 (ip), vehicle: carboxymethylcellulose (CMC)
[4] = dose: 125.0 mg/kg/injection, schedule: Q01DX011 (ip), vehicle: methylcellulose (MC)

## CCC(c1ccc(O)cc1)C(CC)c1ccc(OC)cc1 (centres undefined)
dose: 5.0 mg/kg/injection, schedule: Q01DX011 (sc), vehicle: steriod suspending solution
  T/C: 57 % of control
dose: 10.0 mg/kg/injection, schedule: Q01DX011 (sc), vehicle: steriod suspending solution
  T/C: 56 % of control
dose: 20.0 mg/kg/injection, schedule: Q01DX011 (sc), vehicle: steriod suspending solution
  T/C: 33 % of control
dose: 31.0 mg/kg/injection, schedule: Q01DX011 (ip), vehicle: olive oil, sesame oil, peanut oil
  T/C: 33 % of control
dose: 62.5 mg/kg/injection, schedule: Q01DX011 (ip), vehicle: olive oil, sesame oil, peanut oil
  T/C: 27 % of control
dose: 125.0 mg/kg/injection, schedule: Q01DX011 (ip), vehicle: olive oil, sesame oil, peanut oil
  T/C: 45 % of control
dose: 250.0 mg/kg/injection, schedule: Q01DX011 (ip), vehicle: olive oil, sesame oil, peanut oil
  T/C: 33 % of control

## Cn1c(=O)c2[nH]c(COCc3nc4c([nH]3)c(=O)n(C)c(=O)n4C)nc2n(C)c1=O
[1]
  T/C: 48 % of control
dose: 75.0 mg/kg/injection, schedule: Q01DX011 (ip), vehicle: methylcellulose (MC)
  T/C: 65 % of control
[2]
  T/C: 21 % of control

## Nc1nc(I)c2ncn(C3OC(CO)C(O)C3O)c2n1 (centres undefined)
dose: 30.0 mg/kg/injection, schedule: Q01DX011 (ip), vehicle: saline
  T/C: 113 % of control
dose: 60.0 mg/kg/injection, schedule: Q01DX011 (ip), vehicle: saline
  T/C: 121 % of control
dose: 120.0 mg/kg/injection, schedule: Q01DX011 (ip), vehicle: saline
  T/C: 82 % of control
dose: 240.0 mg/kg/injection, schedule: Q01DX011 (ip), vehicle: saline
  T/C: 62 % of control
dose: 400.0 mg/kg/injection, schedule: Q01DX011 (ip), vehicle: saline
  T/C: 9 % of control
dose: 600.0 mg/kg/injection, schedule: Q01DX011 (ip), vehicle: saline
  T/C: 47 % of control

## CC(COS(C)(=O)=O)C(=O)N1CCN(C(=O)C(C)COS(C)(=O)=O)CC1 (centres undefined)
dose: 28.0 mg/kg/injection, schedule: Q01DX011 (ip), vehicle: methylcellulose (MC)
  T/C: 69 % of control
dose: 57.0 mg/kg/injection, schedule: Q01DX011 (ip), vehicle: methylcellulose (MC)
  T/C: 74 % of control
dose: 113.0 mg/kg/injection, schedule: Q01DX011 (ip), vehicle: methylcellulose (MC)
  T/C: 73 % of control
[2]
  T/C: 69 % of control

## Nc1nc(SN=Nc2ccc(S(=O)(=O)O)cc2)c2[nH]cnc2n1
dose: 0.13 mg/kg/injection, schedule: Q01DX011 (sc), vehicle: alkali diluted with saline
  T/C: 70 % of control
dose: 0.25 mg/kg/injection, schedule: Q01DX011 (sc), vehicle: alkali diluted with saline
  T/C: 48 % of control
dose: 0.5 mg/kg/injection, schedule: Q01DX011 (ip), vehicle: alkali diluted with saline
  T/C: 50 % of control
dose: 0.5 mg/kg/injection, schedule: Q01DX011 (ip), vehicle: other
  T/C: 46 % of control
dose: 0.5 mg/kg/injection, schedule: Q01DX011 (sc), vehicle: alkali diluted with saline
  T/C: 32 % of control
dose: 1.0 mg/kg/injection, schedule: Q01DX011 (ip), vehicle: alkali diluted with saline
  T/C: 12 % of control
dose: 1.0 mg/kg/injection, schedule: Q01DX011 (ip), vehicle: other
  T/C: 3 % of control
dose: 2.0 mg/kg/injection, schedule: Q01DX011 (ip), vehicle: alkali diluted with saline
  T/C: 1 % of control
dose: 8.0 mg/kg/injection, schedule: Q01DX011 (ip), vehicle: alkali diluted with saline
  T/C: 1 % of control

## O=C1Nc2cc3c(c4cccc1c24)CCCC3
dose: 1.25 mg/kg/injection, schedule: Q01DX011 (ip), vehicle: carboxymethylcellulose (CMC)
  T/C: 111 % of control
dose: 5.0 mg/kg/injection, schedule: Q01DX011 (ip), vehicle: carboxymethylcellulose (CMC)
  T/C: 95 % of control

## Brc1ncnc2nc[nH]c12
dose: 1.12 mg/kg/injection, schedule: Q01DX011 (ip), vehicle: carboxymethylcellulose (CMC)
  T/C: 99 % of control
dose: 2.25 mg/kg/injection, schedule: Q01DX011 (ip), vehicle: carboxymethylcellulose (CMC)
  T/C: 100 % of control
dose: 4.5 mg/kg/injection, schedule: Q01DX011 (ip), vehicle: carboxymethylcellulose (CMC)
  T/C: 43 % of control
dose: 9.0 mg/kg/injection, schedule: Q01DX011 (ip), vehicle: carboxymethylcellulose (CMC)
  T/C: 50 % of control
dose: 9.37 mg/kg/injection, schedule: Q01DX011 (ip), vehicle: carboxymethylcellulose (CMC)
  T/C: 10 % of control
dose: 18.75 mg/kg/injection, schedule: Q01DX011 (ip), vehicle: carboxymethylcellulose (CMC)
  T/C: 10 % of control
dose: 37.5 mg/kg/injection, schedule: Q01DX011 (ip), vehicle: carboxymethylcellulose (CMC)
  T/C: 2 % of control
[3]
  T/C: 1 % of control and 6 % of control
dose: 150.0 mg/kg/injection, schedule: Q01DX011 (ip), vehicle: carboxymethylcellulose (CMC)
  T/C: 6 % of control

## Cn1c(=O)c2[nH]c(N/N=C/c3ccc(Br)cc3)nc2n(C)c1=O
dose: 30.0 mg/kg/injection, schedule: Q01DX011 (ip), vehicle: carboxymethylcellulose (CMC)
  T/C: 109 % of control
dose: 60.0 mg/kg/injection, schedule: Q01DX011 (ip), vehicle: carboxymethylcellulose (CMC)
  T/C: 106 % of control
dose: 120.0 mg/kg/injection, schedule: Q01DX011 (ip), vehicle: carboxymethylcellulose (CMC)
  T/C: 92 % of control and 116 % of control
dose: 240.0 mg/kg/injection, schedule: Q01DX011 (ip), vehicle: carboxymethylcellulose (CMC)
  T/C: 104 % of control and 88 % of control
dose: 480.0 mg/kg/injection, schedule: Q01DX011 (ip), vehicle: carboxymethylcellulose (CMC)
  T/C: 97 % of control

## CC(=O)O[C@]1(C(C)=O)CC[C@H]2[C@@H]3C[C@H](C)C4=CC(=O)C=C[C@]4(C)[C@@]3(F)[C@@H](O)C[C@@]21C
dose: 4.5 mg/kg/injection, schedule: Q01DX011 (sc), vehicle: steriod suspending solution
  T/C: 95 % of control
dose: 9.0 mg/kg/injection, schedule: Q01DX011 (sc), vehicle: steriod suspending solution
  T/C: 60 % of control
dose: 15.0 mg/kg/injection, schedule: Q01DX011 (sc), vehicle: steriod suspending solution
  T/C: 54 % of control
dose: 18.0 mg/kg/injection, schedule: Q01DX011 (sc), vehicle: steriod suspending solution
  T/C: 34 % of control
dose: 30.0 mg/kg/injection, schedule: Q01DX011 (sc), vehicle: steriod suspending solution
  T/C: 34 % of control
dose: 60.0 mg/kg/injection, schedule: Q01DX011 (sc), vehicle: steriod suspending solution
  T/C: 19 % of control
dose: 120.0 mg/kg/injection, schedule: Q01DX011 (sc), vehicle: steriod suspending solution
  T/C: 8 % of control
dose: 136.0 mg/kg/injection, schedule: Q01DX011 (sc), vehicle: steriod suspending solution
  T/C: 17 % of control

## Cn1c(=O)c2c(nc(C(=N)SCC(=O)O)n2C)n(C)c1=O
[1]
  T/C: 61 % of control

## COC(=O)C1C2CC3c4[nH]c5cc(OC)ccc5c4CCN3CC2CC(OC(=O)c2cc(OC)c(OC)c(OC)c2)C1OC (centres undefined)
dose: 0.5 mg/kg/injection, schedule: Q01DX011 (ip), vehicle: saline
  T/C: 109 % of control
dose: 2.0 mg/kg/injection, schedule: Q01DX011 (ip), vehicle: saline
  T/C: 101 % of control

## NS(=O)(=O)c1nc(=S)c2[nH]cnc2[nH]1
dose: 25.0 mg/kg/injection, schedule: Q01DX011 (ip), vehicle: carboxymethylcellulose (CMC)
  T/C: 108 % of control
[3]
  T/C: 117 % of control
dose: 225.0 mg/kg/injection, schedule: Q01DX011 (ip), vehicle: carboxymethylcellulose (CMC)
  T/C: 79 % of control

## Cc1cnc(SCc2ccccc2Cl)nc1N(C)C
dose: 15.0 mg/kg/injection, schedule: Q01DX011 (ip), vehicle: methylcellulose (MC)
  T/C: 89 % of control
[4]
  T/C: 109 % of control

## C=CC1CN2CCC1CC2C(O)c1ccnc2ccc(OC)cc12 (centres undefined)
dose: 28.96 mg/kg/injection, schedule: Q01DX011 (ip), vehicle: carboxymethylcellulose (CMC)
  T/C: 109 % of control
dose: 57.93 mg/kg/injection, schedule: Q01DX011 (ip), vehicle: carboxymethylcellulose (CMC)
  T/C: 121 % of control
dose: 92.68 mg/kg/injection, schedule: Q01DX011 (ip), vehicle: carboxymethylcellulose (CMC)
  T/C: 70 % of control
dose: 115.85 mg/kg/injection, schedule: Q01DX011 (ip), vehicle: carboxymethylcellulose (CMC)
  T/C: 76 % of control
[4]
  T/C: 82 % of control
dose: 154.46 mg/kg/injection, schedule: Q01DX011 (ip), vehicle: carboxymethylcellulose (CMC)
  T/C: 86 % of control
dose: 231.7 mg/kg/injection, schedule: Q01DX011 (ip), vehicle: carboxymethylcellulose (CMC)
  T/C: 72 % of control
dose: 250.0 mg/kg/injection, schedule: Q01DX011 (ip), vehicle: methylcellulose (MC)
  T/C: 91 % of control
